According to ChEMBL document CHEMBL3046166, “Synthesis and biological evaluation of some new Thiazolo[3,2-a][1,3,5]triazine derivatives” (2012):
Active and inactive are the calls of the source. No cut-off for these calls is given here.

Key:
[1] = Induction of DNA fragmentation using ethidium bromide staining by agarose gel electrophoresis
Escherichia coli = assay: Antibacterial activity against Escherichia coli after 24 hr by agar diffusion technique; assay type: functional

Row | SMILES | Activity [1] | diameter of the inhibition zone (DIZ) (Escherichia coli)
1 | N=C1NC(=O)/C(=C/c2ccccc2)S1 | Active | 15 mm
2 | CC1(C)S[C@@H]2[C@H](NC(=O)[C@H](N)c3ccccc3)C(=O)N2[C@H]1C(=O)O [AMPICILLIN] |  | 21 mm
3 | N=C1NC(=O)CS1 | Active | 14 mm
4 | CSC(=S)C1Sc2nc(=S)sc(=S)n2C1=O (centres undefined) | Active | 14 mm

Continued, in another order:

Row | Activity [1] | SMILES | diameter of the inhibition zone (DIZ) (Escherichia coli)
5 | Active | O=C1CSC2=NCN(c3ccccc3)CN12 | 26 mm
6 | Active | Cc1ccc(N/N=C2/SC3=NCN(c4ccccc4)CN3C2=O)cc1 | 13 mm
7 | Active | O=c1/c(=C/c2ccc3c(c2)OCO3)sc2n1CN(c1ccccc1)CN=2 | 14 mm
8 | Active | O=c1/c(=C/c2ccc(/C=c3/sc4n(c3=O)CN(c3ccccc3)CN=4)cc2)sc2n1CN(c1ccccc1)CN=2 | 14 mm
9 | Active | CN(C)/C=c1\sc2n(c1=O)CN(c1ccccc1)CN=2 | 26 mm
10 | Active | O=c1/c(=C/c2ccc(Cl)cc2)sc2n1CN(c1ccccc1)CN=2 | 14 mm
